{"source": "ChEMBL document CHEMBL1134935", "about": "“Novel lopinavir analogues incorporating non-Aromatic P-1 side chains--synthesis and structure--activity relationships” (Bioorg Med Chem Lett, 2002)", "key": {"[1]": {"system": "MT4", "assay": "Antiviral activity against the cytopathic effects of HIV IIIB in MT-4 cells was assayed in the presence of 50% human serum", "type": "functional, cell-based"}, "[2]": {"system": "MT4", "assay": "Cytotoxicity against MT-4 cells", "type": "functional, cell-based", "conditions": "Homo sapiens"}, "[3]": {"biological_target": "Human immunodeficiency virus type 1 protease (Human immunodeficiency virus 1) (UniProt Q72874)", "assay": "Compound was tested for its inhibitory potency against HIV protease at 0.5 nM"}}, "note": "pEC50, pIC50: −log10 of the molar value."}
{"smiles": "Cc1cccc(C)c1OCC(=O)N[C@@H](Cc1ccccc1)[C@@H](O)C[C@H](Cc1ccccc1)NC(=O)[C@H](C(C)C)N1CCCNC1=O", "note": "[LOPINAVIR]", "values": [{"measurement": "pEC50", "setting": "[1]", "value": 7.00}, {"measurement": "pIC50", "setting": "[2]", "value": 4.75}, {"measurement": "inhibition", "setting": "[3]", "value": 93, "unit": "%"}]}
{"smiles": "CCC(CC)C[C@@H](C[C@H](O)[C@H](Cc1ccccc1)NC(=O)COc1c(C)cccc1C)NC(=O)[C@H](C(C)C)N1CCCNC1=O", "values": [{"measurement": "pEC50", "setting": "[1]", "value": 5.55}, {"measurement": "pIC50", "setting": "[2]", "value": 4.75}, {"measurement": "inhibition", "setting": "[3]", "value": 87, "unit": "%"}]}
{"smiles": "CCCC[C@@H](C[C@H](O)[C@H](Cc1ccccc1)NC(=O)COc1c(C)cccc1C)NC(=O)[C@H](C(C)C)N1CCCNC1=O", "values": [{"measurement": "pEC50", "setting": "[1]", "value": 6.04}, {"measurement": "pIC50", "setting": "[2]", "value": 4.48}, {"measurement": "inhibition", "setting": "[3]", "value": 87, "unit": "%"}]}
{"smiles": "Cc1cccc(C)c1OCC(=O)N[C@@H](Cc1ccccc1)[C@@H](O)C[C@H](CC(C)C)NC(=O)[C@H](C(C)C)N1CCCNC1=O", "values": [{"measurement": "pEC50", "setting": "[1]", "value": 6.49}, {"measurement": "pIC50", "setting": "[2]", "value": 4.46}, {"measurement": "inhibition", "setting": "[3]", "value": 64, "unit": "%"}]}
{"smiles": "Cc1cccc(C)c1OCC(=O)N[C@@H](Cc1ccccc1)[C@@H](O)C[C@H](CCC(C)C)NC(=O)[C@H](C(C)C)N1CCCNC1=O", "values": [{"measurement": "pEC50", "setting": "[1]", "value": 6.47}, {"measurement": "pIC50", "setting": "[2]", "value": 4.73}, {"measurement": "inhibition", "setting": "[3]", "value": 97, "unit": "%"}]}
{"smiles": "Cc1cccc(C)c1OCC(=O)N[C@@H](Cc1ccccc1)[C@@H](O)C[C@@H](NC(=O)[C@H](C(C)C)N1CCCNC1=O)C(C)C", "values": [{"measurement": "pEC50", "setting": "[1]", "value": 6.59}, {"measurement": "pIC50", "setting": "[2]", "value": 4.25}, {"measurement": "inhibition", "setting": "[3]", "value": 93, "unit": "%"}]}
